In US20090325959A1 (priority 2008, published 2009):
Like-named read-outs stand apart in the source and are kept apart here.

What was measured:
ROCK2 = target: T1, ROCK2 (Homo sapiens, UniProt O75116); experiment: Rho kinase inhibition assay (IMAP fluorescence polarization), ROCK2; format: biochemical;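 note: kinase reaction started with 10 µM ATP and run 60 min at room temperature, then phosphorylated substrate captured on IMAP beads for 30 min and fluorescence polarization read in mP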
T1 construct: purchased Upstate/Chemicon 14-451
T1 sequence (O75116 11-552 limits assumed): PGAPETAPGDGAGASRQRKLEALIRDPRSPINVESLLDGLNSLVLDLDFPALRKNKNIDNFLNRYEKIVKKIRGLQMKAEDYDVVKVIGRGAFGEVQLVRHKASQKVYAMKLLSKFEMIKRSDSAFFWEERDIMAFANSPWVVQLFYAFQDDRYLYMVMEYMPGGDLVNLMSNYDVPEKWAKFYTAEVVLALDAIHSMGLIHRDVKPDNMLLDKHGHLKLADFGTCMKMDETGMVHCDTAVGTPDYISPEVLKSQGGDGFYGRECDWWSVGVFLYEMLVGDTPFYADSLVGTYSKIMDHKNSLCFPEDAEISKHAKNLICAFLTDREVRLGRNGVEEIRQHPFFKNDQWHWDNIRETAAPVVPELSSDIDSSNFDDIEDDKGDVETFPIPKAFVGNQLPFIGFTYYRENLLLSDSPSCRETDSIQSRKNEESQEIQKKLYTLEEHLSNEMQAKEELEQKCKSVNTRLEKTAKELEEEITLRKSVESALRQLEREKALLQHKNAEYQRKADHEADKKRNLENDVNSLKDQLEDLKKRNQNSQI
Protocol: (§1) Following the pre-incubation, 10 μM ATP was added to initiate the reaction. After 60 minutes at room temperature, Molecular Devices IMAP™ binding solution was added to bind phosphorylated substrate. After 30 minutes of incubation in the presence of the IMAP™ beads, the fluorescence polarization was read and the ratio was reported as mP. IC50 values for compounds and EC50 values for ATP were calculated using the Prism software from Graphpad.

[1] = Compound plasma concentrations in unsensitized mice at 15 min post administration; format: in vivo; details: mouse, 15 μmol/kg; mean compound plasma concentration in mice at 15 minutes post oral administration; read-out: Mouse Oral PK
Protocol: Additionally, compound concentrations were determined in the plasma and lungs of male, ovalbumin-sensitized, Balb/c mice from a murine model of asthma. Test compounds were formulated in water or 1% polysorbate 80 and dosed at 15 μmol/kg for intraperitoneal (IP) or oral (PO) administration or formulated for intratracheal (IT) administration and dosed at 5 μmol/kg, which directly targets the lungs. Following completion of the in vivo study, mice were euthanized and blood and plasma collected approximately 2.5-3 hours post administration of test compound for bronchodialator (BD) studies and 24 hours post administration for anti-inflamatory (AI) studies. Lungs were homogenized in Matrix A lysing tubes using a FastPrep 24 tissue and cell homogenizer (MP Biomedicals, Solon, Ohio). Both plasma samples and lung extracts were assayed for compound concentrations using an on-line, solid phase extraction LC/MS/MS system.

ROCK1 = target: T2, ROCK1 (Homo sapiens, UniProt Q13464); experiment: Rho kinase inhibition assay (IMAP fluorescence polarization), ROCK1; format: biochemical;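 note: kinase reaction run 60 min at room temperature, then phosphorylated substrate captured on IMAP beads for 30 min, with fluorescence polarization read in mP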
T2 construct: purchased Upstate/Chemicon 14-601
T2 sequence (Q13464 17-535 limits assumed): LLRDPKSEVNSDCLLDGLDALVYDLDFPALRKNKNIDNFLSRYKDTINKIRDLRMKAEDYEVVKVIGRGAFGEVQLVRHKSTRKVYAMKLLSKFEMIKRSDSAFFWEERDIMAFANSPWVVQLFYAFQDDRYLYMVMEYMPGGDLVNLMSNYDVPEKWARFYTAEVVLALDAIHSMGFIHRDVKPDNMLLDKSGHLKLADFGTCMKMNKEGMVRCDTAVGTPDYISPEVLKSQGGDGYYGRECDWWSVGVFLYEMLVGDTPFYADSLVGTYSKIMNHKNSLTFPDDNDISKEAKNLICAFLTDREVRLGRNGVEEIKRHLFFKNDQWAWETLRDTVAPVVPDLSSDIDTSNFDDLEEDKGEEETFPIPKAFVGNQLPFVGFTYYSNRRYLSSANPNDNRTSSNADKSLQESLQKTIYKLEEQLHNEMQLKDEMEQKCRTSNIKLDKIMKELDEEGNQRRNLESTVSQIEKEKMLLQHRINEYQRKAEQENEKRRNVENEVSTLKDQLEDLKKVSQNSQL
Protocol: as §1

p70S6K human enzyme = target: T3, p70S6K human enzyme (Homo sapiens, UniProt P23443, T412E); experiment: p70S6K inhibition assay (IMAP FP); format: biochemical;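 note: kinase reaction run at room temperature, phosphorylated substrate captured on IMAP beads and read as fluorescence polarization in mP, IC50 then converted to Ki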
T3 construct: purchased Upstate Chemicon 14-486
T3 sequence (P23443 1-421 T412E limits assumed): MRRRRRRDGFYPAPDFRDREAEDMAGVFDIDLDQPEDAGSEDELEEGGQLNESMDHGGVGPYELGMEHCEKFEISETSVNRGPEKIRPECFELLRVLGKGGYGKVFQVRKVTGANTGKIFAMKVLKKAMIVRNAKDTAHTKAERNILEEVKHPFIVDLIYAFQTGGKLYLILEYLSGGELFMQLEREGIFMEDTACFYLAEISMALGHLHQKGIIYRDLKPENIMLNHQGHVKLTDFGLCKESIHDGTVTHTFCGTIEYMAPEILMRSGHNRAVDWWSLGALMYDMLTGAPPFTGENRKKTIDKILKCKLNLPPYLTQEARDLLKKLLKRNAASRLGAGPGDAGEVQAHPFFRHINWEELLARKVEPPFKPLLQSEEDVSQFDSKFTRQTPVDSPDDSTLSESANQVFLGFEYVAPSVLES

Akt3 human enzyme = target: T4, Akt3 human enzyme (Homo sapiens, UniProt Q9Y243); experiment: Akt3 inhibition assay (IMAP FP); format: biochemical;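 note: kinase reaction run 60 min at room temperature after 30 µM ATP start, phosphorylated substrate captured on IMAP beads and read as fluorescence polarization (mP)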
T4 construct: purchased Upstate Chemicon 14-502
T4 sequence (Q9Y243 whole entry): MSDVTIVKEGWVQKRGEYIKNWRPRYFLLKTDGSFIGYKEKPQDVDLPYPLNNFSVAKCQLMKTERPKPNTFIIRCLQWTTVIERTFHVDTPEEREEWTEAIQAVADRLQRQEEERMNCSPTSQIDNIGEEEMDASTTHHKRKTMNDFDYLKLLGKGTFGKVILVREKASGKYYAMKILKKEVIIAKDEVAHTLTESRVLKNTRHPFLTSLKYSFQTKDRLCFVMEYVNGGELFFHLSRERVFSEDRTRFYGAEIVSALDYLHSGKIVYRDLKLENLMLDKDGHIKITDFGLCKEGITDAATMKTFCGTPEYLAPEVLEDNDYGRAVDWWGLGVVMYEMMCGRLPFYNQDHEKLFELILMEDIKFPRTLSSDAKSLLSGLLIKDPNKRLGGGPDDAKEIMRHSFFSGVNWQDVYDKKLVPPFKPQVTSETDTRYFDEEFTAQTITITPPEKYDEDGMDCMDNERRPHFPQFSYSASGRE

[2] = 10 μM ATP, read-out: ROCK2 Ki, Avg
[3] = 30 μM ATP, Ki=IC50/(1+([ATP Challenge]/EC50 ATP)), read-out: p70S6K Ki, Avg
[4] = average Ki, read-out: p70S6K Ki
[5] = 30 μM ATP, Ki=IC50/(1+([ATP Challenge]/EC50 ATP)), read-out: Akt3 Ki, Avg

Compound	Ki (ROCK2; [2]) [nM]	Ki (ROCK2; average Ki, read-out: ROCK2 Ki) [nM]	concentration at 15 min [1] [nM]	Ki (ROCK1; Avg, 10 μM ATP) [nM]	Ki (ROCK1; average Ki) [nM]	Ki (p70S6K human enzyme; [3]) [nM]	Ki (p70S6K human enzyme; [4]) [nM]	Ki (Akt3 human enzyme; [5]) [nM]	Ki (Akt3 human enzyme; average Ki, read-out: Akt3 Ki) [nM]
NS(=O)(=O)c1cccc(CN2CCC[C@@H](Nc3ccc4[nH]ncc4c3)C2)c1 [Compound 1.249, (R)-3-((3-(1H-indazol-5-ylamino)piperidin-1-yl)methyl)benzenesulfonamide]	8.6	8.6	2150	91.7	91.7	937	937	1600	1600
CCOC(=O)COc1cccc(CN2CCC[C@H](Nc3ccc4[nH]ncc4c3)C2)c1 [Compound 1.200, (S)-ethyl 2-(3-((3-(1H-indazol-5-ylamino)piperidin-1-yl)methyl)phenoxy)acetate]	5.9	5.9	0	76.5	76.5	3900	3900	10600	10600
Brc1ccc(CN2CCC[C@@H](Nc3ccc4[nH]ncc4c3)C2)cc1 [Compound 1.134, (R)-N-(1-(4-bromobenzyl)piperidin-3-yl)-1H-indazol-5-amine]	4.4	4.4	1550	22.4	22.4	520	520	151	151
Brc1ccc(CN2CCC[C@H](Nc3ccc4[nH]ncc4c3)C2)cc1 [Compound 1.142, (S)-N-(1-(4-bromobenzyl)piperidin-3-yl)-1H-indazoi-5-amine]	12			104		2520		8270	
CCc1ccc(CN2CCC[C@H](Nc3ccc4[nH]ncc4c3)C2)cc1 [Compound 1.154, (S)-N-(1-(4-ethylbenzyl)piperidin-3-yl)-1H-indazol-5-amine]	6.6			52.7		1130		4950	
c1ccc(CN2CCC[C@H](Nc3ccc4[nH]ncc4c3)C2)cc1 [Compound 1.227, (S)-N-(1-benzylpiperidin-3-yl)-1H-indazol-5-amine]	5.3			47.5		1580		3480	
Cc1ccc(S(=O)(=O)Nc2cc(CN3CCC[C@@H](Nc4ccc5[nH]ncc5c4)C3)ccc2C)cc1 [Compound 1.260, (R)-N-(5-((3-(1H-indazol-5-ylamino)piperidin-1-yl)methyl)-2-methylphenyl)-4-methylbenzenesulfonamide]	7.1	7.1	291	70.9	70.9				
Oc1cccc(CN2CC[C@@H](Nc3cccc4cnccc34)C2)c1 [Compound 2.061, (R)-3-((3-(isoquinolin-5-ylamino)pyrrolidin-1-yl)methyl)phenol]	1.8	1.8	73	10.5	10.5				
c1cc(C2CC2)ccc1CN1CCC[C@H](Nc2ccc3[nH]ncc3c2)C1 [Compound 1.185, (S)-N-(1-(4-cyclopropylbenzyl)piperidin-3-yl)-1H-indazol-5-amine]	12.6			81.6		1150		4220	
CC(C)(C)OC(=O)NCc1cccc(CN2CCC[C@H](Nc3ccc4[nH]ncc4c3)C2)c1 [Compound 1.176, (S)-tert-butyl 3-((3-(1H-indazol-5-ylamino)piperidin-1-yl)methyl)benzylcarbamate]			89	314	314	8760	8760	20900	20900
CCS(=O)(=O)Nc1cc(CN2CCC[C@@H](Nc3ccc4[nH]ncc4c3)C2)ccc1C [Compound 1.259, (R)-N-(5-((3-(1H-indazol-5-ylamino)piperidin-1-yl)methyl)-2-methylphenyl)ethanesulfonamide]	2.1	2.1	264	19.5	19.5				
Fc1ccc(CN2CCC[C@H](Nc3ccc4[nH]ncc4c3)C2)cc1F [Compound 1.072, (S)-N-(1-(3,4-difluorobenzyl)piperidin-3-yl)-1H-indazol-5-amine]	5.6			33.7		1130		4750	
O=C(COc1cccc(CN2CCC[C@@H](Nc3ccc4[nH]ncc4c3)C2)c1)N1CCOCC1 [Compound 1.127, (R)-2-(3-((3-(1H-indazol-5-ylamino)piperidin-1-yl)methyl)phenoxy)-1-morpholinoethanone]	11.2			96.6		2070		975	
c1cc(N[C@@H]2CCN(Cc3ccc4cc[nH]c4c3)C2)c2ccncc2c1 [Compound 2.057, (R)-N-(1-((1H-indol-6-yl)methyl)pyrrolidin-3-yl)isoquinolin-5-amine]	3.7	3.7	431	6.2	6.2				
c1cc2cc(CN3CCC[C@@H](Nc4ccc5[nH]ncc5c4)C3)ccc2[nH]1 [Compound 1.143, (R)-N-(1-((1H-indol-5-yl)methyl)piperidin-3-yl)-1H-indazol-5-amine]	12.6			49.7		538		707	
c1cc(N[C@@H]2CCN(Cc3ccc4[nH]ccc4c3)C2)c2ccncc2c1 [Compound 2.065, (R)-N-(1-((1H-indol-5-yl)methyl)pyrrolidin-3-yl)isoquinolin-5-amine]	1.8	1.8	236	4.1	4.1				
FC(F)(F)c1ccc(CN2CCC[C@@H](Nc3ccc4[nH]ncc4c3)C2)cc1 [Compound 1.178, (R)-N-(1-(4-(trifluoromethyl)benzyl)piperidin-3-yl)-1H-indazol-5-amine]	24.9			138		1120		711	
COc1ccc(CN2CCC[C@@H](Nc3ccc4[nH]ncc4c3)C2)cc1 [Compound 1.226, (R)-N-(1-(4-methoxybenzyl)piperidin-3-yl)-1H-indazol-5-amine]	8.8			91.7		1350		531	
C=Cc1ccc(CN2CCC[C@@H](Nc3ccc4[nH]ncc4c3)C2)cc1 [Compound 1.208, (R)-N-(1-(4-vinylbenzyl)piperidin-3-yl)-1H-indazol-5-amine]	12.9			54.2		721		346	
Clc1cccc(CN2CCC[C@H](Nc3ccc4[nH]ncc4c3)C2)c1 [Compound 1.170, (S)-N-(1-(3-chlorobenzyl)piperidin-3-yl)-1H-indazol-5-amine]	12.5			80		2050		7810	
NC(=O)Cn1ccc2ccc(CN3CCC[C@@H](Nc4ccc5[nH]ncc5c4)C3)cc21 [Compound 1.106, (R)-2-(6-((3-(1H-indazol-5-ylamino)piperidin-1-yl)methyl)-1H-indol-1-yl)acetamide]	15.1			223		1330		3910	
O=C(COc1cccc(CN2CCC[C@@H](Nc3ccc4[nH]ncc4c3)C2)c1)Nc1cccnc1 [Compound 1.126, (R)-2-(3-((3-(1H-indazol-5-ylamino)piperidin-1-yl)methyl)phenoxy)-N-(pyridin-3-yl)acetamide]	17.2	17.2	0	76.2	76.2				
C=Cc1ccc(CN2CCC[C@H](Nc3ccc4[nH]ncc4c3)C2)cc1 [Compound 1.229, (S)-N-(1-(4-vinylbenzyl)piperidin-3-yl)-1H-indazol-5-amine]	18.4			121		3130		24600	
Fc1ccc(CN2CCC[C@@H](Nc3ccc4[nH]ncc4c3)C2)cc1 [Compound 1.146, (R)-N-(1-(4-fluorobenzyl)piperidin-3-yl)-1H-indazol-5-amine]	10.7			39.8		742		205	
Cc1ccc(CN2CCC[C@H](Nc3ccc4[nH]ncc4c3)C2)cc1 [Compound 1.078, (S)-N-(1-(4-methylbenzyl)piperidin-3-yl)-1H-indazol-5-amine]	3.6			36.3		1680		3270	
C#Cc1cccc(CN2CCC[C@@H](Nc3ccc4[nH]ncc4c3)C2)c1 [Compound 1.193, (R)-N-(1-(3-ethynylbenzyl)piperidin-3-yl)-1H-indazol-5-amine]	14.8	14.8	55	64.9	64.9				
c1cc2c(cc1CN1CCC[C@@H](Nc3ccc4[nH]ncc4c3)C1)CCO2 [Compound 1.246, (R)-N-(1-((2,3-dihydrobenzofuran-5-yl)methyl)piperidin-3-yl)-1H-indazol-5-amine]	11.2			92.1		1880		1100	
CSc1cccc(CN2CCC[C@@H](Nc3ccc4[nH]ncc4c3)C2)c1 [Compound 1.159, (R)-N-(1-(3-(methylthio)benzyl)piperidin-3-yl)-1H-indazol-5-amine]	10.1			48.1		2060		1230	
Oc1cccc(CN2CCC[C@@H](Nc3ccc4[nH]ncc4c3)C2)c1 [Compound 1.145, (R)-3-((3-(1H-indazol-5-ylamino)piperidin-1-yl)methyl)phenol]	6.4			35		2300		1190	
